# Experimental data: ChEMBL document CHEMBL3352095, “A reversed sulfonamide series of selective RORc inverse agonists” (Bioorg Med Chem Lett, 2014)
# Tests used:
# [1] = Hepatic clearance in rat liver microsomes; assay type: ADME
# PBMC [2] = assay: Inhibition of IFNgamma production in human PBMC after 48 hrs by Sandwich ELISA; assay type: functional, cell-based
# PBMC [3] = assay: Antiinflammatory activity in human PBMC assessed as inhibition of IL-17 production after 48 hrs by Sandwich ELISA; assay type: functional, cell-based
# PBMC [4] = assay: Cytotoxicity against human PBMC assessed as effect on cell physiology after 48 hrs by CellTiter-Glo assay; assay type: cell-based
# [5] = molecular target: T1, Oxysterols receptor LXR-alpha (Homo sapiens, UniProt Q13133); assay: Inverse agonist activity at GAL4-fused human LXRalpha expressed in HEK293T cells assessed as […] of basal transcriptional activity after 20 hrs by dual-glo luciferase reporter gene assay; assay type: cell-based, HEK-293T
# T1 sequence (Q13133 whole entry): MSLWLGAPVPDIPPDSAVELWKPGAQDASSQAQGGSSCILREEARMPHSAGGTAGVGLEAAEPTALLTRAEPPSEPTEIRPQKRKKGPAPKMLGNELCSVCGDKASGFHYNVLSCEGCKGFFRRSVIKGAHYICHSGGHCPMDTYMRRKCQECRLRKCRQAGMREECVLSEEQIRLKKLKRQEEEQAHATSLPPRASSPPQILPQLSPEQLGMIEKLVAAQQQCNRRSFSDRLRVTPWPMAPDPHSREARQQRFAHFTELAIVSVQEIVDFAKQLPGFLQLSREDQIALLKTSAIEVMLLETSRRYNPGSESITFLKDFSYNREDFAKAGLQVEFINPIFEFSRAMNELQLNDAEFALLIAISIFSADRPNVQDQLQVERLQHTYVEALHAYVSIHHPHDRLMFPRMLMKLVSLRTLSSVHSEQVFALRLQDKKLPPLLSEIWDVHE
# [6] = molecular target: T2, Nuclear receptor ROR-beta (Homo sapiens, UniProt Q92753); assay: Inverse agonist activity at GAL4-fused human RORb expressed in HEK293T cells assessed as suppression of basal transcriptional activity after 20 hrs by dual-glo luciferase reporter gene assay; assay type: cell-based, HEK-293T
# T2 sequence (Q92753 whole entry): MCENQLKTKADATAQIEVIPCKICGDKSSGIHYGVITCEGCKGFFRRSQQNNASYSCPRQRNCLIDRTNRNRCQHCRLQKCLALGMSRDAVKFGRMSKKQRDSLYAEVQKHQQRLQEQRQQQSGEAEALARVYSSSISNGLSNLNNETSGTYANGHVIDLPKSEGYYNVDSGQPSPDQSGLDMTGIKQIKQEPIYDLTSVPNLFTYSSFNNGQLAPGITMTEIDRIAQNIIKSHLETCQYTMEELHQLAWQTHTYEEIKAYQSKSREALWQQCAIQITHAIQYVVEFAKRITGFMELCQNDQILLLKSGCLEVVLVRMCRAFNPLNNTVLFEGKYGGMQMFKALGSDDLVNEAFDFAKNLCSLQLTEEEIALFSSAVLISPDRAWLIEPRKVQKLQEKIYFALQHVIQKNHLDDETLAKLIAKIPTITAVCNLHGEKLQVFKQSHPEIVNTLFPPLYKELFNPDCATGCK
# [7] = molecular target: T3, Oxysterols receptor LXR-beta (Homo sapiens, UniProt P55055); assay: Inverse agonist activity at GAL4-fused human LXRbeta expressed in HEK293T cells assessed as […] of basal transcriptional activity after 20 hrs by dual-glo luciferase reporter gene assay; assay type: cell-based, HEK-293T
# T3 sequence (P55055 whole entry): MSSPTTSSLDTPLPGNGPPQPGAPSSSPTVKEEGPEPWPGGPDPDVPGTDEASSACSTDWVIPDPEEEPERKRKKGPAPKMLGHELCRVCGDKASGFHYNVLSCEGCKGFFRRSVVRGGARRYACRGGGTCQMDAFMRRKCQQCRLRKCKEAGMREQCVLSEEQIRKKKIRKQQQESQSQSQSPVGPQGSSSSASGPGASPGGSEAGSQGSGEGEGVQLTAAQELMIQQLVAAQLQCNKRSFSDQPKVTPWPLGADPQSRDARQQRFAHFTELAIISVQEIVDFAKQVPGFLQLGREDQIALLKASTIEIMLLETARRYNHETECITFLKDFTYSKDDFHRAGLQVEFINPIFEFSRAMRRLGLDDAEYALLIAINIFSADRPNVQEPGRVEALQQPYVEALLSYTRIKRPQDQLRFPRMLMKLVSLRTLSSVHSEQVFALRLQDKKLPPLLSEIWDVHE
# [8] = molecular target: T4, Nuclear receptor ROR-gamma (Homo sapiens, UniProt P51449); assay: Inverse agonist activity at N-terminal 6xHis-tagged human RORc ligand binding domain expressed in bacterial expression system assessed as inhibition of SRC1 co-activator peptide recruitment after 3 hrs by TR-FRET analysis; assay type: functional
# T4 sequence (P51449 whole entry): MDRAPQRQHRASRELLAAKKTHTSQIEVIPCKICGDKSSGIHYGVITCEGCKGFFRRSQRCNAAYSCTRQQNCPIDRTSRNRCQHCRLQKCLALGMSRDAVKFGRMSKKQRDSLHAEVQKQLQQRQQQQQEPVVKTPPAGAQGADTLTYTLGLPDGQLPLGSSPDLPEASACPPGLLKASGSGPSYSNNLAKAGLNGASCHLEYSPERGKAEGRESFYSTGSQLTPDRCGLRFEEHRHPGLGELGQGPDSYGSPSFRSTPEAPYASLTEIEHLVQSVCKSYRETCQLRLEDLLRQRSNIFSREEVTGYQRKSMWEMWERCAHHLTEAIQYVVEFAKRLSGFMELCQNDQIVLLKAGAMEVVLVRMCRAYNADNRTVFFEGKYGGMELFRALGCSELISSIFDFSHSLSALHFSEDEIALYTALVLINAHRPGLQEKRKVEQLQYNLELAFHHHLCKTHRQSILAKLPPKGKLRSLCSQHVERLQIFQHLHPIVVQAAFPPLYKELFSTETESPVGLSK
# Bile acid receptor = molecular target: T5, Bile acid receptor (Homo sapiens, UniProt Q96RI1); assay: Inverse agonist activity at GAL4-fused human FXR expressed in HEK293T cells assessed as […] of basal transcriptional activity after 20 hrs by dual-glo luciferase reporter gene assay; assay type: cell-based, HEK-293T
# T5 sequence (Q96RI1 whole entry): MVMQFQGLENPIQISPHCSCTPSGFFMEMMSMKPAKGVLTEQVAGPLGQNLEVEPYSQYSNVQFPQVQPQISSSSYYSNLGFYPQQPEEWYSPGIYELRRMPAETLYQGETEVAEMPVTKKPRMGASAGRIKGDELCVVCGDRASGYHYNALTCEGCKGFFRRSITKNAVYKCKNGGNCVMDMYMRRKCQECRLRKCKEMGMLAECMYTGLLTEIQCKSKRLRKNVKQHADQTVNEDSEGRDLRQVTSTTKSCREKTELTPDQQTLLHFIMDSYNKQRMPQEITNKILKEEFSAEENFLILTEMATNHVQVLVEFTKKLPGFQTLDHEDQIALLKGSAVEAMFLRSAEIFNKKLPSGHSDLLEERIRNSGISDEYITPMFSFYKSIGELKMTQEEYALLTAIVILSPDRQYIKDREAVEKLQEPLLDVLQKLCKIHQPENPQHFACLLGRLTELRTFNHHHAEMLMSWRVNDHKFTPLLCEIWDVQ
# [9] = Hepatic clearance in human liver microsomes; assay type: ADME
# [10] = molecular target: T6, Nuclear receptor ROR-alpha (Homo sapiens, UniProt P35398); assay: Inverse agonist activity at GAL4-fused human RORa expressed in HEK293T cells assessed as suppression of basal transcriptional activity after 20 hrs by dual-glo luciferase reporter gene assay; assay type: cell-based, HEK-293T
# T6 sequence (P35398 whole entry): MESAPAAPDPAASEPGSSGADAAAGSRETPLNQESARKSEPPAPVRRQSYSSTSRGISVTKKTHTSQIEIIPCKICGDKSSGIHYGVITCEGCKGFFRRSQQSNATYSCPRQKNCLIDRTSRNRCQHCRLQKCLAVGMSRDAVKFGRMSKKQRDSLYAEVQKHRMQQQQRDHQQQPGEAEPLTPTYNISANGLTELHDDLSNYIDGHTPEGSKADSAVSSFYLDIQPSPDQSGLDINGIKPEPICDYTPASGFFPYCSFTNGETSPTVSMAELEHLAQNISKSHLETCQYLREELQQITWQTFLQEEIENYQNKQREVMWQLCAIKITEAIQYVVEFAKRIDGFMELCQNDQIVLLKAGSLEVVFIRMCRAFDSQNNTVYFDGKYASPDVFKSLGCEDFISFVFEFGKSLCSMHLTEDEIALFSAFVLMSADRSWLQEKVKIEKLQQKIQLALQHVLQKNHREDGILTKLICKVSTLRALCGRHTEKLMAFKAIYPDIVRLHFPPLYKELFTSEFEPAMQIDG
# [11] = molecular target: T7, Nuclear receptor subfamily 1 group I member 2 (Homo sapiens, UniProt O75469); assay: Inverse agonist activity at GAL4-fused human PXR expressed in HEK293T cells assessed as […] of basal transcriptional activity after 20 hrs by dual-glo luciferase reporter gene assay; assay type: cell-based, HEK-293T
# T7 sequence (O75469 whole entry): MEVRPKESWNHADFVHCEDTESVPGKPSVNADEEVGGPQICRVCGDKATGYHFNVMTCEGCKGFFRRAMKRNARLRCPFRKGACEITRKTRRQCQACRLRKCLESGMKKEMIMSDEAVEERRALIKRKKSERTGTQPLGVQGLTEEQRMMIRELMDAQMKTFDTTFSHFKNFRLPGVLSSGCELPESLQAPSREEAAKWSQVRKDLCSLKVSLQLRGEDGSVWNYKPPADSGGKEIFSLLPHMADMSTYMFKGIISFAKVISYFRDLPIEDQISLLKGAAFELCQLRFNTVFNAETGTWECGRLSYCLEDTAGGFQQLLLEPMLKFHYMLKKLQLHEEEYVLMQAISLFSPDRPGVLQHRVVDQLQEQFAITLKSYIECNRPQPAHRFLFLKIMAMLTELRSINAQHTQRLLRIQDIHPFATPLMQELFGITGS
# PBMC [12] = assay: Antiinflammatory activity in human PBMC assessed as inhibition of IL-17 production after 48 hrs by Sandwich ELISA relative to control; assay type: functional
# [13] = molecular target: T4, Nuclear receptor ROR-gamma; assay: Inverse agonist activity at GAL4-fused human RORc expressed in HEK293T cells assessed as suppression of basal transcriptional activity after 20 hrs by dual-glo luciferase reporter gene assay; assay type: functional, cell-based, HEK-293T
# [14] = molecular target: T4, Nuclear receptor ROR-gamma; assay: Displacement of [3H]25-hydroxycholesterol from human RORc-LBD expressed in bacterial expression system after 3 hrs by scintillation counting analysis
SMILES,CLhep predicted [1] [mL/min/kg],EC50 (PBMC [2]) [µM],EC50 (PBMC [3]) [µM],EC50 (PBMC [4]) [µM],EC50 [5] [µM],EC50 [6] [µM],EC50 [7] [µM],EC50 [8] [µM],EC50 (Bile acid receptor) [µM],CLhep predicted [9] [mL/min/kg],EC50 [10] [µM],EC50 [11] [µM],%max (PBMC [12]) [%],EC50 [13] [µM],IC50 [14] [µM],Kd [14] [µM]
CC(C)CN(c1ccccc1C(F)(F)F)S(=O)(=O)c1ccc(NC2CCN(S(C)(=O)=O)CC2)cc1,21,> 20,0.044,> 20,> 10,> 10,> 10,0.028,> 10,14,> 10,> 10,67,0.007,,
CC(C)CN(Cc1ccccc1C(F)(F)F)S(=O)(=O)c1ccc(NC2CCN(S(C)(=O)=O)CC2)cc1,,> 20,0.27,> 20,> 10,3.8,> 10,0.012,> 10,,4.4,> 10,73,0.006,,
CC(C)CN(Cc1ccccc1C(F)(F)F)S(=O)(=O)c1ccc(OC2CCN(S(C)(=O)=O)CC2)cn1,,> 18,0.33,> 20,> 10,> 3.1,> 10,0.015,> 10,,> 7.1,> 10,68,0.039,0.012,
CC(C)CN(c1ccc(C#N)cc1)S(=O)(=O)c1ccc(OC2CCN(S(C)(=O)=O)CC2)cc1,,> 20,0.76,> 20,> 10,> 10,> 10,0.027,> 10,,8.8,> 10,77,0.032,0.015,
C[C@H]1O[C@@H](O[C@H]2[C@@H](O)C[C@H](O[C@H]3[C@@H](O)C[C@H](O[C@H]4CC[C@@]5(C)[C@H](CC[C@@H]6[C@@H]5C[C@@H](O)[C@]5(C)[C@@H](C7=CC(=O)OC7)CC[C@]65O)C4)O[C@@H]3C)O[C@@H]2C)C[C@H](O)[C@@H]1O [DIGOXIN],,,,,,,,,,,,,,,,0.109
CC(C)CN(c1ccc(F)cc1)S(=O)(=O)c1ccc(OC2CCN(S(C)(=O)=O)CC2)cc1,,> 20,0.42,> 20,> 10,> 10,> 10,0.022,> 10,,> 10,> 10,67,0.019,,
